From patent US20190070170A1, “METHOD OF S[…]-1” (Macau University of Science and Technology, priority 2017, published 2019) come the findings set out here.

One experiment deals with PGE2. Nature of the experiment: PGE2 production in LPS-stimulated rat peritoneal macrophages (ELISA). Conditions: SIN 160, 320 or 640 μM or 0.5 μM DEX 1 h, then LPS 1 μg/ml 24 h. It is filed as cell-based. How it is done:
(§1) Sprague-Dawley (SD) rats from the University of Hong Kong were housed in cages with free access to food and water. Peritoneal macrophages of SD rats were isolated as described in Liu J. et al., Pharmacological research 2016, 111:303-315. Briefly, untreated rats were sacrificed and after laparotomy, about 50 ml cold sterile Hank's balanced salt solution (HBSS) was used to lavage the peritoneal cavity at twice, and then the peritoneal lavage fluid was collected and centrifuged at 1500 rpm for 10 min. The cell pellets was suspended at a density 1.5×10^6 cells/ml in pre-hearted DMEM medium with 10% heat-inactivated FBS, penicillin G (100 units/ml), streptomycin ([…]), and L-glutamine (2 mM), followed by seeding in 6-well plates at a density of 4.5×10^6 cells and incubation for 2 h. Then the medium were discarded to remove the non-adherent cells. The adherent cells were further washed for two times with pre-heated DMEM medium to remove floating cells. Next, cells were pre-treated with various concentration of SIN for 1 h, followed by stimulation with LPS (1 μg/ml).
(§2) RAW264.7 cells and rat peritoneal macrophages were seeded in a 96-well plate at density of 1.4×10^4 and 1.5×10^5 cells, respectively. […] The optical density was measured at 570 nm against a reference wavelength of 650 nm using a microplate UV/VIS spectrophotometer (Tecan, Mannedorf, Switzerland). […]

The subject of another experiment is mPGES-1. Nature of the experiment: mPGES-1 protein in microsomes of inflamed paw of carrageenan-induced rats (western blotting). The conditions noted are these: SIN 25, 50, 100 mg/kg or DEX 2 mg/kg i.p. In kind it is in vivo, SD rats. In general terms: In western blotting, separated proteins are transferred to a membrane and probed.
The next experiment deals with COX-1. Put plainly: COX-1 protein in microsomes of inflamed paw of carrageenan-induced rats (western blotting). The conditions noted are these: SIN or DEX pretreatment i.p. It is filed as in vivo, SD rats. As to the method: The model of carrageenan-induced paw edema was performed with SD rats (150-200 g). The carrageenan-induced paw edema was performed in SD rats (150-200 g) by subcutaneously injection λ-carrageenan as described in Liu J. et al., Pharmacological research 2016, 111 and Luo P. et al., J. Pharmacol. Exp. Ther. 2010. Briefly, rats were fasted for 12 h before experiment and intraperitoneal injection was performed with three different doses (25, 50 and 100 mg/kg) of SIN, or DEX (reference drug, 2 mg/kg) or 0.9% saline (Vehicle and Normal group rats), at 2 h prior to the induction of paw edema. […] Paw volumes (ml) of right hind foot of each rat were measured using a plethysmometer (type 7150; UGO Basile, Comerio, Italy) at 0 h (before carrageenan injection) and then again at 1, 2, 3 and 4 h after the injection of carrageenan or saline. The percentage of paw edema of the right hind paws of all groups were calculated at different time points by the following equation: […]
Whole-cell and nuclear proteins were obtained using RIPA lysis buffer (CST, Boston, Mass., USA) and Nuclear and Cytoplasmic Extraction Reagents kit from Thermo Scientific (Asheville, N.C., USA), respectively. […] The levels of protein expression were measured using Odyssey v3.0 software from Li-COR (Lincoln, Nebr., USA).

The subject of a further experiment is NO. Nature of the experiment: NO production in LPS-stimulated rat peritoneal macrophages (Griess reagent). In kind it is cell-based. Conditions: pretreatment 1 h, LPS 1 μg/ml 24 h. How it is done:
as §1, §2
(In general: The Griess reaction detects nitrite, a stable product of nitric oxide.)

Method for mPGES-1: The model of carrageenan-induced paw edema was performed with SD rats (150-200 g). […] Briefly, rats were fasted for 12 h before experiment and intraperitoneal injection was performed with three different doses (25, 50 and 100 mg/kg) of SIN, or DEX (reference drug, 2 mg/kg) or 0.9% saline (Vehicle and Normal group rats), at 2 h prior to the induction of paw edema. Paw edema was induced by subcutaneous injection of 100 μl of 1% (w/v) freshly prepared λ-carrageenan (Sigma, St Louis, Mo., USA) diluted in saline in the right hind foot pad. 100 μl sterile saline was injected to the rats in the right hind paw as normal control.
After accomplish the experiment, rats were sacrificed by injection of dorminal, which contains 20% pentobarbital and followed by cervical dislocation. The paw tissues were removed and freshly frozen in liquid nitrogen immediately and stored at −80° C.
Frozen paws were pulverized in liquid nitrogen using a stainless steel mortar and pestle, then re-suspended in 8 volumes of ice-cold PBS from Invitrogen (San Diego, Calif., USA) with 2.6 mM DTT from Promega (Madison, Wis., USA) and 2×Complete Protease Inhibitor mixture from Roche (Mannheim, Germany), and homogenized on ice bath using a tissue homogenizer from T25 digital, IKA (Stanfen, Germany) at 10,000 rpm/min for 5 min. […] The protein concentrations were measured using a Bio-Rad protein assay kit (Hercules, Calif., USA). […]

For the compound `COC1=C[C@@H]2[C@@H]3Cc4ccc(OC)c(O)c4[C@]2(CCN3C)CC1=O` [SIN, sinomenine], the PGE2 production result in the experiment with PGE2 is listed as “significant inhibition of PGE2 production in a dose dependent manner”. Besides, the “mPGES-1 protein expression in inflamed paw tissues” value with mPGES-1 is on record as “strongly down-regulated”. In addition, in the experiment with COX-1, the “COX-1 level in inflamed paw” value was “did not produce observable effects”. Also, in the experiment on NO, the “NO production (nitrite)” value is “significantly inhibited”.
